Laboratory results taken from patent US20130178534A1, “N-Nonanoylvanillylamine as an agent for reducing the appetite, as an agent for imparting a feeling of fullness and as a mood enhancer, and corresponding substance mixtures, orally consumable products and methods” (Symrise AG, priority 2012, published 2013).

What was measured:
SH-SY5Y cells [1] = assay: Release of serotonin by SH-SY5Y cells (Example 3); assay type: cell-based, Human; settings: for T/C [%] release of serotonin: normalised to control
Experimental: (§1) Human neuroblastoma cells (SH-SY5Y, ATCC number CRL-2266) are used as the cell model. Cultivation takes place at 37° C. and 5% CO2 content with a mixture consisting of equal parts of Eagle's Minimum Essential Medium (MEM) and F12 medium (in each case with 10% FBS and 1% penicillin/streptomycin). For measurement of the release of dopamine and serotonin, the cells are harvested with trypsin and, after a vitality test by trypan blue staining, are sown in a defined cell number in 35 mm cell culture dishes.
After stimulation of 1.25*10^6 human neuroblastoma cells (SH-SY5Y) for 3 minutes with 300 μl of Krebs-Ringer HEPES buffer, 0.1% ascorbic acid, pH 6.2, with or without addition of N-nonanoylvanillylamine (wherein in the case of addition of N-nonanoylvanillylamine, concentrations of 0.01 μM, 0.1 μM, 1 μM and 10 μM are established in the Krebs-Ringer HEPES buffer), the serotonin content is determined by means of an enzyme-based detection method (serotonin ELISA sensitive, […], Hamburg, Germany). The cells are lysed with a buffer containing sodium lauryl sarcosinate, and the DNA content is determined by means of a NanoQuant plate (Tecan, Ménnendorf, Switzerland) for normalisation of the serotonin release.

SH-SY5Y cells [2] = assay: Release of serotonin by SH-SY5Y cells with N-nonanoylvanillylamine and a TRPV1 inhibitor (Example 4); assay type: cell-based, Human
Experimental: as §1
After stimulation of 1.25*10^6 human neuroblastoma cells (SH-SY5Y) for 3 minutes with 300 μl of Krebs-Ringer HEPES buffer (0.1% ascorbic acid, pH 6.2), with or without addition of N-nonanoylvanillylamine (so that a concentration of 1 μM N-nonanoylvanillylamine is established in the Krebs-Ringer HEPES buffer) in combination with different application-relevant amounts of the selective TRPV1 inhibitor trans-4-tert-butylcyclohexanol, the serotonin content is determined by means of an enzyme-based detection method (serotonin ELISA sensitive, DLD Diagnostica, Hamburg, Germany). The cells are lysed with a buffer containing sodium lauryl sarcosinate, and the DNA content is determined by means of a NanoQuant plate in a plate reader (Tecan, Ménnendorf, Switzerland) for normalisation of the serotonin release.

SH-SY5Y cells [3] = assay: Release of dopamine by SH-SY5Y cells with N-nonanoylvanillylamine and a TRPV1 inhibitor (Example 2); assay type: cell-based, Human
Experimental: as §1
After stimulation of 1.25*10^6 human neuroblastoma cells (SH-SY5Y) for 3 minutes with 350 μl of Krebs-Ringer HEPES buffer, pH 5, with or without addition of 1 μM N-nonanolyvanillylamine (wherein in the case of addition of N-nonanoylvanillylamine, a concentration of 1 μM is established in the Krebs-Ringer HEPES buffer) in combination with different application-relevant amounts of the selective TRPV1 inhibitor trans-4-tert-butylcyclohexanol (so that concentrations of 25, 50 and 80 μM of trans-4-tert-butylcyclo-hexanol are established in the Krebs-Ringer HEPES buffer), the supernatant is acidified with 1 N HCl and the dopamine content is determined by means of an enzyme-based detection method (dopamine ELISA, DLD Diagnostica, Hamburg, Germany). The cells are lysed with a buffer containing sodium lauryl sarcosinate, and the DNA content is determined by means of a NanoQuant plate (Tecan, Ménnendorf, Switzerland) for normalisation of the dopamine release. For comparison purposes, the tests were repeated without the addition of N-nonanoylvanillylamine.

[4] = cited from earlier work
[5] = Kollmannsberger 2007; cited from earlier work
SH-SY5Y cells [6] = assay: Release of dopamine by SH-SY5Y cells (Example 1); assay type: cell-based, Human; settings: for T/C [%] release of dopamine: 3 minutes, normalised to control
Experimental: as §1
Method for measuring the release of dopamine:
After stimulation of 1.25*10^6 human neuroblastoma cells (SH-SY5Y) for 3 minutes with 350 μl of Krebs-Ringer HEPES buffer, pH 5, with or without addition of N-nonanoylvanillylamine (wherein in the case of addition of N-nonanoylvanillylamine, concentrations of 0.1 μM, 1 μM and 10 μM are established in the Krebs-Ringer HEPES buffer), the supernatant is acidified with 1 N HCl and the dopamine content is determined by means of an enzyme-based detection method (dopamine ELISA, DLD Diagnostica, Hamburg, Germany). The cells are lysed with a buffer containing sodium lauryl sarcosinate, and the DNA content is determined by means of a NanoQuant plate (Tecan, Ménnendorf, Switzerland) for normalisation of the dopamine release. In the case of an ethanol control (EtOH control), no N-nonanoylvanillylamine is added to the Krebs-Ringer HEPES buffer, but ethanol is added to the buffer so that a 0.1% ethanolic Krebs-Ringer HEPES buffer solution is obtained. In the case of the positive control, acetylcholine is used instead of the N-nonanoylvanillylamine, a concentration of 100 μM acetylcholine being established in the Krebs-Ringer HEPES buffer.

[7] = 25 μM alone, without N-nonanoylvanillylamine
[8] = 50 μM alone, without N-nonanoylvanillylamine
[9] = 80 μM alone, without N-nonanoylvanillylamine
[10] = N-nonanoylvanillylamine 1 μM + 25 μM trans-4-tert-butylcyclohexanol
[11] = N-nonanoylvanillylamine 1 μM + 50 μM trans-4-tert-butylcyclohexanol
[12] = N-nonanoylvanillylamine 1 μM + 80 μM trans-4-tert-butylcyclohexanol
[13] = N-nonanoylvanillylamine 1 μM alone

[Cl-].[K+] [KCl, potassium chloride, reference compound]
T/C [%] release of serotonin (SH-SY5Y cells [1]; 50 mM (positive control)): 153.48%

CC(C)(C)[C@H]1CC[C@H](O)CC1 [trans-4-tert-butylcyclohexanol, reference compound]
T/C [%] release of serotonin (SH-SY5Y cells [2]; [7]): 91.07% | T/C [%] release of serotonin (SH-SY5Y cells [2]; [8]): 101.39% | T/C [%] release of serotonin (SH-SY5Y cells [2]; [9]): 84.129% | T/C [%] release of serotonin (SH-SY5Y cells [2]; 200 μM alone, without N-nonanoylvanillylamine): 110.99% | T/C [%] release of dopamine (SH-SY5Y cells [3]; [7]): 84.47% | T/C [%] release of dopamine (SH-SY5Y cells [3]; [8]): 38.19% | T/C [%] release of dopamine (SH-SY5Y cells [3]; [9]): 63.53%

COc1cc(CNC(=O)CCCC/C=C/C(C)C)ccc1O [capsaicin, reference compound]
rating for genotoxicity ([4]; EFSA / Scientific Committee on Food opinion 2002): negatively rated as having genotoxic potential

CCCCCCCCC(=O)NCc1ccc(O)c(OC)c1 [N-Nonanoylvanillylamine]
detection threshold [5]: 0.107 mg/kg | stimulant threshold [5]: 0.054 mg/kg | influence of addition of TRPV1 inhibitor trans-4-tert-butylcyclohexanol on the serotonin release (SH-SY5Y cells [2]; 1 μM N-nonanoylvanillylamine): not significantly influenced | T/C [%] release of serotonin (SH-SY5Y cells [2]; [10]): 154.86% | T/C [%] release of serotonin (SH-SY5Y cells [2]; [11]): 128.74% | T/C [%] release of serotonin (SH-SY5Y cells [2]; [12]): 140.81% | T/C [%] release of serotonin (SH-SY5Y cells [2]; N-nonanoylvanillylamine 1 μM + 200 μM trans-4-tert-butylcyclohexanol): 181.93% | T/C [%] release of serotonin (SH-SY5Y cells [2]; [13]): 151.75% | T/C [%] release of dopamine (SH-SY5Y cells [6]; 0.1 μM): 697.84% | increase in the amount of dopamine released by SH-SY5Y cells (SH-SY5Y cells [6]; 100 nM): seven-fold increase | T/C [%] release of dopamine (SH-SY5Y cells [6]; 1 μM): 1350.94% | T/C [%] release of dopamine (SH-SY5Y cells [6]; 10 μM): 1774.98% | stimulating the release of dopamine, compared with the respective control (SH-SY5Y cells [6]; approximately 0.03 mg/kg (0.1 μM)): about 700% | T/C [%] release of serotonin (SH-SY5Y cells [1]; 0.01 μM, 3 minutes): 191.35% | amount of serotonin released by SH-SY5Y cells (SH-SY5Y cells [1]; 0.1 μM and above, p<0.005): increases highly significantly | T/C [%] release of serotonin (SH-SY5Y cells [1]; 0.1 μM, 3 minutes): 226.44% | T/C [%] release of serotonin (SH-SY5Y cells [1]; 1 μM, 3 minutes): 272.12% | T/C [%] release of serotonin (SH-SY5Y cells [1]; 10 μM, 3 minutes): 185.65% | stimulating the release of serotonin in neurons, maximum, compared with the respective control (SH-SY5Y cells [1]; concentration range 0.01 μM to 10 μM (0.003 mg/kg to 3 mg/kg)): about 270% | EFSA safety rating ([4]; rated in FGE.86): no safety concern | increase in the amount of dopamine released (SH-SY5Y cells [3]; 1 μM): five-fold increase | influence of simultaneous stimulation with TRPV1 inhibitor trans-4-tert-butylcyclohexanol on the dopamine release (SH-SY5Y cells [3]; 1 μM N-nonanoylvanillylamine, inhibitor 25, 50 and 80 μM): not significantly influenced | T/C [%] release of dopamine (SH-SY5Y cells [3]; [10]): 433.55% | T/C [%] release of dopamine (SH-SY5Y cells [3]; [11]): 456.80% | T/C [%] release of dopamine (SH-SY5Y cells [3]; [12]): 422.48% | T/C [%] release of dopamine (SH-SY5Y cells [3]; [13]): 501.20%

CC(=O)OCC[N+](C)(C)C [Acetylcholine, acetylcholine, reference compound]
T/C [%] release of dopamine (SH-SY5Y cells [6]; 100 μM (positive control)): 139.84%
